The results in this text go back to patent US20240315247A1, “MICROBIOCIDAL QUINOLINE DIHYDRO-(THIAZINE)OXAZINE DERIVATIVES” (SYNGENTA CROP PROTECTION AG, priority 2020, published 2024).

Data set [1] concerns Botryotinia fuckeliana (Botrytis cinerea). In words: Botryotinia fuckeliana (Botrytis cinerea) / liquid culture (Gray mould). The class given is cell-based. To be noted: growth inhibition photometrically 3-4 days after application, compared to untreated control. The procedure:
Botryotinia Fuckeliana (Botrytis cinerea)/Liquid Culture (Gray Mould) Conidia of the fungus from cryogenic storage are directly mixed into nutrient broth (Vogels broth). After placing a (DMSO) solution of test compound into a microtiter plate (96-well format), the nutrient broth containing the fungal spores is added. The test plates are incubated at 24° C. and the inhibition of growth is determined photometrically 3-4 days after application.

Data set [2] concerns Glomerella lagenarium (Colletotrichum laqenarium). Kind of data set: Glomerella lagenarium (Colletotrichum lagenarium) / liquid culture (Anthracnose). The note with it: growth inhibition photometrically 3-4 days after application, compared to untreated control. The class given is cell-based. The procedure: Glomerella lagenarium (Colletotrichum laqenarium)/liquid culture (Anthracnose) Conidia of the fungus from cryogenic storage are directly mixed into nutrient broth (PDB potato dextrose broth). After placing a (DMSO) solution of test compound into a microtiter plate (96-well format), the nutrient broth containing the fungal spores is added. The test plates are incubated at 24° C. and the inhibition of growth is measured photometrically 3-4 days after application.

In data set [3] the test system is Monographella nivalis (Microdochium nivale). In words: Monographella nivalis (Microdochium nivale) / liquid culture (Foot rot cereals). The class given is cell-based. The note with it: growth inhibition photometrically 4-5 days after application, compared to untreated control. The procedure:
Monographella nivalis (Microdochium nivale)/Liquid Culture (Foot Rot Cereals) Conidia of the fungus from cryogenic storage are directly mixed into nutrient broth (PDB potato dextrose broth). After placing a (DMSO) solution of test compound into a microtiter plate (96-well format), the nutrient broth containing the fungal spores is added. The test plates are incubated at 24° C. and the inhibition of growth is determined photometrically 4-5 days after application.

The structures appear in SMILES notation.

Broadly, the inhibition of growth is the percentage by which the read-out fell short of the control. Read a high inhibition of growth as strong suppression. Consider `CC1(COc2ccc(Br)cc2)CC(C)(C)OC(c2cnc3c(F)cccc3c2)=N1` (stereo not drawn) [E.03, 4-[(4-bromophenoxy)methyl]-2-(8-fluoro-3-quinolyl)-4,6,6-trimethyl-5H-1,3-oxazine], for which the inhibition of growth at 20 ppm in data set [1], in data set [2] and in data set [3] was no less than 80% in each case.

On to `C=C(C)CC1(C)CC(C)(C)OC(c2cnc3c(F)cccc3c2)=N1` (stereo not drawn) [E.019, 2-(8-fluoro-3-quinolyl)-4,6,6-trimethyl-4-(2-methylallyl)-5H-1,3-oxazine], for which the inhibition of growth at 20 ppm in data set [1], in data set [2] and in data set [3] was no less than 80% throughout.

As for `C=C(C)CC1(CC)CC(C)(C)OC(c2cnc3c(F)cccc3c2)=N1` (stereo not drawn) [E.020, 4-ethyl-2-(8-fluoro-3-quinolyl)-6,6-dimethyl-4-(2-methylallyl)-5H-1,3-oxazine], the inhibition of growth at 20 ppm in data set [1], in data set [2] and in data set [3] was no less than 80% each time.

Turning to `CC(C)CC1CC(C)(C)OC(c2cnc3c(F)c(F)ccc3c2)=N1` (stereo not drawn) [E.012, 2-(7,8-difluoro-3-quinolyl)-4-isobutyl-6,6-dimethyl-4,5-dihydro-1,3-oxazine], the inhibition of growth at 20 ppm in data set [1], in data set [2] and in data set [3] was no less than 80% each time.

For the compound `CC1(C)CC(CCC(F)(F)F)N=C(c2cnc3c(F)c(F)ccc3c2)O1` (stereo not drawn) [E.010, 2-(7,8-difluoro-3-quinolyl)-6,6-dimethyl-4-(3,3,3-trifluoropropyl)-4,5-dihydro-1,3-oxazine], the inhibition of growth at 20 ppm in data set [1] and in data set [3] was no less than 80% each time.

As for `CC1(C)CC(COc2ccccc2)N=C(c2cnc3c(F)c(F)ccc3c2)O1` (stereo not drawn) [E.07, 2-(7,8-difluoro-3-quinolyl)-6,6-dimethyl-4-(phenoxymethyl)-4,5-dihydro-1,3-oxazine], the inhibition of growth at 20 ppm in data set [1] and in data set [3] was no less than 80% each time.

`CC1(COc2ccc(Br)cc2Br)CC(C)(C)OC(c2cnc3c(F)cccc3c2)=N1` (stereo not drawn) [E.02, 4-[(2,4-dibromophenoxy)methyl]-2-(8-fluoro-3-quinolyl)-4,6,6-trimethyl-5H-1,3-oxazine]: the inhibition of growth at 20 ppm in data set [1] and in data set [3] was no less than 80% throughout.

Usually melting point stands for the temperature, or range, at which the solid turns liquid. `CC1(C)CC(CC(F)(F)F)N=C(c2cnc3c(F)c(F)ccc3c2)O1` (stereo not drawn) [E.09, 2-(7,8-difluoro-3-quinolyl)-6,6-dimethyl-4-(2,2,2-trifluoroethyl)-4,5-dihydro-1,3-oxazine] showed a melting point of 146 to 148 °C. For the same compound, the inhibition of growth at 20 ppm in data set [3] was no less than 80%.

Compound `CC(C)(C)CC1CC(C)(C)OC(c2cnc3c(F)c(F)ccc3c2)=N1` (stereo not drawn) [E.011, 2-(7,8-difluoro-3-quinolyl)-4-(2,2-dimethylpropyl)-6,6-dimethyl-4,5-dihydro-1,3-oxazine] yielded a melting point of 112 to 113 °C. The compound further gave an inhibition of growth at 20 ppm in data set [1] of no less than 80%. In data set [3], this compound showed an inhibition of growth at 20 ppm of no less than 80%.

For `CC1(CC2CCCCC2)CC(C)(C)OC(c2cnc3c(F)c(F)ccc3c2)=N1` (stereo not drawn) [E.015, 4-(cyclohexylmethyl)-2-(7,8-difluoro-3-quinolyl)-4,6,6-trimethyl-5H-1,3-oxazine], the inhibition of growth at 20 ppm in data set [1], in data set [2] and in data set [3] was no less than 80% in each case.

Compound `CC1(COc2ccccc2)CC(C)(C)OC(c2cnc3c(F)c(F)ccc3c2)=N1` (stereo not drawn) [E.06, 2-(7,8-difluoro-3-quinolyl)-4,6,6-trimethyl-4-(phenoxymethyl)-5H-1,3-oxazine] returned a melting point of 105 to 107 °C. The inhibition of growth at 20 ppm in data set [1] was no less than 80%. In data set [3], this compound came in with an inhibition of growth at 20 ppm of no less than 80%.

In the case of `CC(C)CC1(C)CC(C)(C(C)C)OC(c2cnc3c(F)cccc3c2)=N1` (stereo not drawn) [E.017, 2-(8-fluoro-3-quinolyl)-4-isobutyl-6-isopropyl-4,6-dimethyl-5H-1,3-oxazine], the inhibition of growth at 20 ppm in data set [1], in data set [2] and in data set [3] was no less than 80% each time.

On to `CC1(COc2ccc(C#N)cc2)CC(C)(C)OC(c2cnc3c(F)cccc3c2)=N1` (stereo not drawn) [E.01, 4-[[2-(8-fluoro-3-quinolyl)-4,6,6-trimethyl-5H-1,3-oxazin-4-yl]methoxy]benzonitrile], for which the inhibition of growth at 20 ppm in data set [1] and in data set [3] was no less than 80% in each case.

On to `CC1(COc2ccc(F)cc2)CC(C)(C)OC(c2cnc3c(F)cccc3c2)=N1` (stereo not drawn) [E.04, 4-[(4-fluorophenoxy)methyl]-2-(8-fluoro-3-quinolyl)-4,6,6-trimethyl-5H-1,3-oxazine], for which the inhibition of growth at 20 ppm in data set [1], in data set [2] and in data set [3] was no less than 80% in each case.

`Cc1nc2c(F)c(F)ccc2cc1C1=NC(C)(COc2ccccc2)CC(C)(C)O1` (stereo not drawn) [E.05, 2-(7,8-difluoro-2-methyl-3-quinolyl)-4,6,6-trimethyl-4-(phenoxymethyl)-5H-1,3-oxazine]: the inhibition of growth at 20 ppm in data set [1] and in data set [3] was no less than 80% throughout.

In the case of `CC(C)CC1(C)CC(C)(C)OC(c2cnc3c(F)cccc3c2)=N1` (stereo not drawn) [E.013, 2-(8-fluoro-3-quinolyl)-4-isobutyl-4,6,6-trimethyl-5H-1,3-oxazine], the inhibition of growth at 20 ppm in data set [1], in data set [2] and in data set [3] was no less than 80% each time.

As to `C=C(C)CC1(C)CC(C)(C)OC(c2cnc3c(F)c(F)ccc3c2)=N1` (stereo not drawn) [E.016, 2-(7,8-difluoro-3-quinolyl)-4,6,6-trimethyl-4-(2-methylallyl)-5H-1,3-oxazine], the inhibition of growth at 20 ppm in data set [1], in data set [2] and in data set [3] was no less than 80% throughout.

Turning to `CC(C)CC1(C)CC(C)(C)OC(c2cnc3c(F)c(F)ccc3c2)=N1` (stereo not drawn) [E.014, 2-(7,8-difluoro-3-quinolyl)-4-isobutyl-4,6,6-trimethyl-5H-1,3-oxazine], the inhibition of growth at 20 ppm in data set [1], in data set [2] and in data set [3] was no less than 80% throughout.

Take `CC1(COc2ccccc2)CC(C)(C)OC(c2cnc3c(F)cccc3c2)=N1` (stereo not drawn) [E.08, 2-(8-fluoro-3-quinolyl)-4,6,6-trimethyl-4-(phenoxymethyl)-5H-1,3-oxazine]: the inhibition of growth at 20 ppm in data set [1], in data set [2] and in data set [3] was no less than 80% throughout.

For the compound `CCC1(C)CC(C)(CC(C)C)N=C(c2cnc3c(F)cccc3c2)O1` (stereo not drawn) [E.018, 6-ethyl-2-(8-fluoro-3-quinolyl)-4-isobutyl-4,6-dimethyl-5H-1,3-oxazine], the inhibition of growth at 20 ppm in data set [1], in data set [2] and in data set [3] was no less than 80% throughout.
